How the values were obtained:
[1] = Weight loss/gain of rats before and after treatments (PAN-induced nephrotic syndrome); type: in vivo, rat; conditions: rats, day 7; PAN 7.5 mg/100 g BW iv; CM 120 mg/kg ip twice a day; PB 400 mg/kg ip every other day; means ± SE
Experimental: Two different general CYP inhibitors were used, cimetidine (CM) and piperonyl butoxide (PB). Cimetidine has imidazole and cyano groups that inhibit CYP by interacting with the heme moiety. […] To determine the effect of the CYP inhibitors in PAN- induced nephrotic syndrome, CM (120 mg/kg BW) was administered intraperitoneal 1 h prior to PAN injection and then twice a day. Piperonyl butoxide (PB) which yields a metabolite that binds to the heme moiety of CYP, was given intraperitoneal (400 mg/kg BW) 4h before PAN injection and then every other day.
Also, the CYP2B1 inhibitor piperine (PIP), a methylenedioxyphenyl compound found in black and red pepper was used. PIP is believed to inhibit CYP2B1 by forming an inhibitory complex therewith. PIP was administered at a dose of 85 mg/kg of body weight (BW) by an intraperitoneal injection 16 hours prior to PAN injection and then once a day.

[2] = system: CYP2B1; test: CYP2B1 content in GEC exposed to PAN (western blot); type: cell-based, rat; conditions: PAN 1.5 mM for 2 hr at 37° C.; CM 2 mM, PIP 0.2 mM, pyruvate 10 mM
From the text: The microsome fraction obtained was subjected to SDS-page electrophoresis in 1 mm slab gels. The separated forms were transferred from gel to a nitrocellulose sheet using a Mini Trans-blot electroblotting unit. The primary antibodies were monoclonal anti-HO-1 (OSA-111, StressGen, Victoria, BC, Canada) and monoclonal anti-CYP2B1 (PM25, Oxford Biomedical Research, Oxford, Mich., USA). Subsequent to primary and secondary antibody (peroxidase-labeled) treatment, the blots were visualized by enhanced chemiluminescence method.

[3] = system: glomerular epithelial cells GEC; test: PAN-induced cytotoxicity to GEC (trypan blue exclusion, LDH release); type: cell-based, rat; conditions: PAN 1.5 mM 48 h; preincubation CM 2 mM, PB 25 μM, RN 1 mM, PIP 0.2 mM, pyruvate 10 mM
Experimental: Rat GEC (kindly provided by both Dr. Saulo Klahr, Washington University School of Medicine, St. Louis, Mo., and Dr. […], University of Texas Health Science Center, San Antonio, Tex.) were maintained in RPMI-1640 medium supplemented with 10% FBS, 15 mM HEPES, insulin, penicillin, streptomycin and L-glutamine in a humidified atmosphere of 95% air-5% CO2 at 37° C. and fed at intervals of 3 days ([…] et al, 1995, Biochem. Biophys. 318(2):286-294). The cells were maintained in 75 Cm^2 tissue culture flasks and the monolayers were subcultured using 0.05% trypsin-0.53 mM EDTA in Hank's balanced salt solution (HBSS). For the experimental study, the cells were grown in 12-well tissue culture plate until confluence. On the day of experiment, the medium was discarded and the confluent GEC monolayer was washed twice with HBSS. The cells were then incubated with various concentrations of PAN (0, 0.1, 0.5, 1.0, 1.5, and 2.0 mM in HBSS) for different periods of time (0, 6 hours, 1 day, 2 days, 3 days and 4 days) at 37° C. At the end of the incubation, the incubation medium was discarded and the GEC monolayer was harvested by trypsinization with 0.05% trypsin-0.53 mM EDTA for 5 min at 37° C. Isolated cells were suspended in HBSS to give about 10^6 cells/ml. PAN-induced cytotoxicity to GEC was measured by the trypan blue exclusion assay (Baliga et al, 1996, Kidney Intl. 50:1118-1124) and lactate dehydrogenase (LDH) release assay (Baliga et al., 1998, Kidney Intl. 53:394-401.). The latter is the percentage of LDH released into the medium, to total LDH recovered from both medium and cellular fraction. […] After the incubation, the cell monolayers were washed twice with HBSS and then incubated with cytotoxic dose of PAN in HBSS for a period of time necessary to induce consistent cytotoxicity ([…], 48 h, based on the concentration and time course studies) at 37° C. PAN induced cytotoxicity on GEC was measured by trypan blue exclusion assay.

[4] = system: CYP; conditions: cited from earlier work

SMILES | Body weight After Treatment (day7) [1] [g] | CYP2B1 content in GEC [2] | PAN-induced cytotoxicity to GEC [3] | inhibition of CYP [4]
CCCCOCCOCCOCc1cc2c(cc1CCC)OCO2 [PB, piperonyl butoxide] | 253 ± 4 |  |  | 
O=C(/C=C/C=C/c1ccc2c(c1)OCO2)N1CCCCC1 [PIP, piperine] |  | preserved | markedly reduced | 
CNC(=C[N+](=O)[O-])NCCSCc1ccc(CN(C)C)o1 [RN, ranitidine] |  | not | did not show any protection | either weakly or not at all
CC(=O)C(=O)O [pyruvate] |  | preserve | prevent | 
